Where a SMILES comes first, the peptide text is derived from it.
Legend:
Type in all cases: cell-based
[1] = system: Corynebacterium diphteriae HB 11 t1; assay: Inhibition zone assay; set-up: key: --: "-" means that no inhibition has been found; details: I 10 ul
[2] = system: Erwinia salicis NCPPB 2530; assay: Inhibition zone assay; set-up: key: --: "-" means that no inhibition has been found; details: I and B 10 ul, L 5 ug
[3] = system: Salmonella infantis 81/257; assay: Inhibition zone assay; set-up: key: --: "-" means that no inhibition has been found; details: I and B 10 ul
[4] = system: Corynebacterium insidiosum NCPPB 1109; assay: Inhibition zone assay; details: I and B 10 ul, L 5 ug
Description: Whole lymph or purified components, resuspended in PBS to a final volume equal to the starting material (heated lymph), was applied in 3 mm wells on agar plates seeded with the test organisms. Antibacterial activity was determined by measuring the growth-inhibition zones (in mm).

[5] = system: Agrobacterium tumefaciens DSM 3129; assay: Inhibition zone assay; details: I and B 10 ul, L 5 ug
[6] = system: Citrobacter freundii ATCC 8090; assay: Inhibition zone assay; set-up: key: --: "-" means that no inhibition has been found
[7] = system: Enterobacter cloacae LMG 2783; assay: Inhibition zone assay; set-up: key: --: "-" means that no inhibition has been found; details: I and B 10 ul
[8] = system: Xanthomonas campestris pv. vesicatoria XV82-4; assay: Inhibition zone assay; set-up: key: --: "-" means that no inhibition has been found; details: I and B 10 ul, L 5 ug
Proteus mirabilis AU 87 = assay: Inhibition zone assay; set-up: key: --: "-" means that no inhibition has been found; details: I and B 10 ul
[9] = system: Xanthomonas campestris pv. graminis NCPPB 2700; assay: Inhibition zone assay; set-up: key: --: "-" means that no inhibition has been found; details: I and B 10 ul, L 5 ug
[10] = system: Yersinia enterocolitica PGS C-1106; assay: Inhibition zone assay; set-up: key: --: "-" means that no inhibition has been found; details: * synthetic ApidIa and heattreated immune lymph instead of Bee6 and native immune lymph
[11] = system: Pseudomonas syringae pv. tomato NCPPB 1106; assay: Inhibition zone assay; set-up: key: --: "-" means that no inhibition has been found; details: * synthetic ApidIa and heattreated immune lymph instead of Bee6 and native immune lymph
Bacillus cereus LMG 2098 = assay: Inhibition zone assay; set-up: key: --: "-" means that no inhibition has been found
[12] = system: Serratia marcescens ATCC 17991; assay: Inhibition zone assay; set-up: key: --: "-" means that no inhibition has been found
[13] = system: Agrobacterium tumefaciens ATCC 143; assay: Inhibition zone assay; set-up: key: --: "-" means that no inhibition has been found
Salmonella Wien 83/16 = assay: Inhibition zone assay; set-up: key: --: "-" means that no inhibition has been found; details: I and B 10 ul
Klebsiella oxytoca KO2 = assay: Inhibition zone assay; set-up: key: --: "-" means that no inhibition has been found
[14] = system: Pseudomonas cepacia ATCC 25416; assay: Inhibition zone assay; set-up: key: --: "-" means that no inhibition has been found; details: I and B 10 ul, L 5 ug
[15] = system: Klebsiella aerogenes 1961 E; assay: Inhibition zone assay; set-up: key: --: "-" means that no inhibition has been found; details: I and B 10 ul, L 5 ug
[16] = system: Pseudomonas solanacearum ATCC 11696; set-up: key: --: "-" means that no inhibition has been found; details: * synthetic ApidIa and heattreated immune lymph instead of Bee6 and native immune lymph
[17] = system: Erwinia amylovora NCPPB 638; assay: Inhibition zone assay
[18] = system: Salmonella typhimurium NCTC 74; assay: Inhibition zone assay; set-up: key: --: "-" means that no inhibition has been found; details: I and B 10 ul
[19] = system: Rhizobium meliloti ZB 314; assay: Inhibition zone assay; details: I and B 10 ul, L 5 ug
[20] = system: Pseudomonas paucimobilis ATCC 29837; assay: Inhibition zone assay; details: L 5 ug
[21] = system: Bacillus thuringiensis DSM 3131; assay: Inhibition zone assay; set-up: key: --: "-" means that no inhibition has been found; details: I and B 10 ul, L 5 ug
[22] = system: Arthrobacter sp. NRRL B-3724; assay: Inhibition zone assay
[23] = system: Pseudomonas aureofaciens CCEB 518; assay: Inhibition zone assay; set-up: key: --: "-" means that no inhibition has been found; details: I and B 10 ul, L 5 ug
[24] = system: Agrobacterium rhizogenes ATCC 11325; assay: Inhibition zone assay; set-up: key: --: "-" means that no inhibition has been found; details: I and B 10 ul, L 5 ug
[25] = system: Flavobacterium capsulatum ATCC 14666; assay: Inhibition zone assay; set-up: key: --: "-" means that no inhibition has been found
[26] = system: Streptococcus B CDC 55 460; assay: Inhibition zone assay; set-up: key: --: "-" means that no inhibition has been found; details: I 10 ul
[27] = system: Rhodococcus terrae ATCC 25594; assay: Inhibition zone assay; set-up: key: --: "-" means that no inhibition has been found; details: I and B 10 ul
ATCC 17991 = assay: Inhibition zone assay; set-up: key: --: "-" means that no inhibition has been found; details: Salmonella marcescens ATCC 17991
[28] = system: Pseudomonas syringae pv. tabaci NCPPB 1237; assay: Inhibition zone assay; set-up: key: --: "-" means that no inhibition has been found; details: * synthetic ApidIa and heattreated immune lymph instead of Bee6 and native immune lymph
[29] = system: Xanthomonas campestris pv. campestris A 902; assay: Inhibition zone assay; set-up: key: --: "-" means that no inhibition has been found; details: * synthetic ApidIa and heattreated immune lymph instead of Bee6 and native immune lymph
[30] = system: Alcalienes denitrificans ATCC 15173; assay: Inhibition zone assay; set-up: key: --: "-" means that no inhibition has been found
[31] = system: Agrobacterium radiobacter ATCC 19358; assay: Inhibition zone assay; set-up: key: --: "-" means that no inhibition has been found; details: I and B 10 ul, L 5 ug

CC[C@H](C)[C@H](NC(=O)[C@H](CCCCN)NC(=O)[C@@H]1CCCN1C(=O)[C@H](CC(N)=O)NC(=O)[C@H](Cc1ccccc1)NC(=O)[C@@H]1CCCN1C(=O)CNC(=O)[C@H](CCC(N)=O)NC(=O)CNC(=O)[C@@H]1CCCN1C(=O)[C@H](Cc1ccccc1)NC(=O)[C@@H](NC(=O)[C@@H]1CCCN1C(=O)[C@H](Cc1ccccc1)NC(=O)[C@@H]1CCCN1C(=O)[C@H](CCCNC(=N)N)NC(=O)[C@H](CCCNC(=N)N)NC(=O)CNC(=O)[C@@H]1CCCN1C(=O)[C@H](CCC(N)=O)NC(=O)[C@@H]1CCCN1C(=O)[C@@H](NC(=O)[C@H](CC(N)=O)NC(=O)[C@@H]1CCCN1C(=O)[C@H](CC(C)C)NC(=O)[C@@H]1CCCN1C(=O)[C@@H](NC(=O)[C@@H](N)Cc1ccc(O)cc1)C(C)C)C(C)C)[C@@H](C)O)C(=O)N[C@@H](CCCCN)C(=O)N[C@@H](Cc1c[nH]c2ccccc12)C(=O)N1CCC[C@H]1C(=O)N[C@@H](CCC(N)=O)C(=O)NCC(=O)N[C@@H](Cc1ccc(O)cc1)C(=O)O [bee 9] (H-YVPLPNVPQPGRRPFPTFPGQGPFNPKIKWPQGY-OH)
diameter of growth-inhibition zone [1]: --
diameter of growth-inhibition zone [2]: --
diameter of growth-inhibition zone [3]: --
diameter of growth-inhibition zone [4]: 7 mm
diameter of growth-inhibition zone [5]: 4 mm
diameter of growth-inhibition zone [6]: --
diameter of growth-inhibition zone [7]: --
diameter of growth-inhibition zone [8]: --
diameter of growth-inhibition zone (Proteus mirabilis AU 87): --
diameter of growth-inhibition zone [9]: --
diameter of growth-inhibition zone [10]: --
diameter of growth-inhibition zone [11]: --
diameter of growth-inhibition zone (Bacillus cereus LMG 2098): --
diameter of growth-inhibition zone [12]: --
diameter of growth-inhibition zone [13]: --
diameter of growth-inhibition zone (Salmonella Wien 83/16): --
diameter of growth-inhibition zone (Klebsiella oxytoca KO2): --
diameter of growth-inhibition zone [14]: --
diameter of growth-inhibition zone [15]: --
diameter of growth-inhibition zone [16]: --
diameter of growth-inhibition zone [17]: 5 mm
diameter of growth-inhibition zone [18]: --
diameter of growth-inhibition zone [19]: 4 mm
diameter of growth-inhibition zone [20]: 4 mm
diameter of growth-inhibition zone [21]: --
diameter of growth-inhibition zone [22]: 8 mm
diameter of growth-inhibition zone [23]: --
diameter of growth-inhibition zone [24]: --
diameter of growth-inhibition zone [25]: --
diameter of growth-inhibition zone [26]: --
diameter of growth-inhibition zone [27]: --
diameter of growth-inhibition zone (ATCC 17991): --
diameter of growth-inhibition zone [28]: --
diameter of growth-inhibition zone [29]: --
diameter of growth-inhibition zone [30]: --
diameter of growth-inhibition zone [31]: --
